Laboratory results: patent US10335409B2 (priority 2012, dated 2019)
Where two headings read alike, the source gives them in different places.

Legend:
Type in all cases: cell-based, hepatitis C virus
[1] = tested on: genotype 3a (S52) stable HCV replicon in Huh-7-derived cells; assay: Stable subgenomic HCV replicon EC50, genotype 3a (Renilla luciferase); details: Hepatitis C virus, 72 h, read-out: EC50 3A RLUC
[2] = tested on: genotype 4a (ED43) stable HCV replicon in Huh-7-derived cells; assay: Stable subgenomic HCV replicon EC50, genotype 4a (Renilla luciferase); details: Hepatitis C virus, 72 h, read-out: EC50 4A RLUC
Outline: (§1)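 Compounds, three-fold diluted, were applied to Huh-7-derived cells harbouring luciferase replicons (genotype 1a H77, 1b Con1, 2a JFH-1, 4a ED43, with strain-specific adaptive mutations). Seventy-two hours later, intracellular replication was gauged by Renilla luciferase activity and EC50 derived by regression.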

[3] = tested on: genotype 2a (JFH-1) stable HCV replicon in Huh-7-derived cells; assay: Stable subgenomic HCV replicon EC50, genotype 2a (Renilla luciferase); details: Hepatitis C virus, stable replicon genotype 2a, 72 h, read-out: EC50 2A RLUC
Outline: as §1

[4] = tested on: genotype 1a (H77) wild type transient HCV replicon in Huh-7-derived cells; assay: Transient-transfected HCV replicon EC50, genotype 1a wild type; details: Hepatitis C virus, 72 h, read-out: EC50 1A WT
[5] = tested on: genotype 1b (Con1) stable HCV replicon in Huh-7-derived cells; assay: Stable subgenomic HCV replicon EC50, genotype 1b (Renilla luciferase); details: Hepatitis C virus, stable replicon genotype 1b, 72 h, read-out: EC50 1B RLUC
Outline: as §1

[6] = tested on: genotype 1b NS3/4a protease inhibitor resistant variant D168A transient HCV replicon in Huh-7-derived cells; assay: Transient-transfected HCV replicon EC50, genotype 1b D168A; details: Hepatitis C virus, 72 h, read-out: EC50 1B D168A, transient-transfected replicon genotype 1b D168A resistant variant, 72 h
[7] = tested on: genotype 3a (S52) wild type transient HCV replicon in Huh-7-derived cells; assay: Transient-transfected HCV replicon EC50, genotype 3a wild type; details: Hepatitis C virus, 72 h, read-out: EC50 3A WT
[8] = tested on: genotype 1b (Con1) wild type transient HCV replicon in Huh-7-derived cells; assay: Transient-transfected HCV replicon EC50, genotype 1b wild type; details: Hepatitis C virus, 72 h, read-out: EC50 1B WT
[9] = tested on: genotype 1a (H77) stable HCV replicon in Huh-7-derived cells; assay: Stable subgenomic HCV replicon EC50, genotype 1a (Renilla luciferase); details: Hepatitis C virus, stable replicon genotype 1a, 72 h, read-out: EC50 1A RLUC
Outline: as §1

[10] = tested on: genotype 1a NS3/4a protease inhibitor resistant variant R155K transient HCV replicon in Huh-7-derived cells; assay: Transient-transfected HCV replicon EC50, genotype 1a R155K; details: Hepatitis C virus, 72 h, read-out: EC50 1A R155K, transient-transfected replicon genotype 1a R155K resistant variant, 72 h
[11] = transient-transfected replicon genotype 1a wild type
[12] = transient-transfected replicon genotype 3a wild type
[13] = transient-transfected replicon genotype 1b wild type

| Structure (SMILES) | EC50 [1] | EC50 [2] | EC50 [3] | EC50 [4] | EC50 [5] | EC50 [6] | EC50 [7] | EC50 [8] | EC50 [9] | EC50 [10] | EC50 [4, 11] | EC50 [7, 12] | EC50 [8, 13] | EC50 ([4]; GETYPE1A, transient-transfected replicon genotype 1a wild type) | EC50 ([6]; GETYPE1B) | EC50 ([8]; GETYPE1B, transient-transfected replicon genotype 1b wild type) | EC50 ([10]; GETYPE1A) |
| --- | --- | --- | --- | --- | --- | --- | --- | --- | --- | --- | --- | --- | --- | --- | --- | --- | --- |
| COc1ccc2nc3c(nc2c1)O[C@H]1CN(C(=O)[C@H](C(C)(C)C)NC(=O)O[C@@H]2C[C@@H]4C[C@@H]4[C@H]2CCCCC3)[C@H](C(=O)N[C@]2(C(=O)NS(=O)(=O)C3(C)CC3)C[C@H]2C(F)F)[C@@H]1C [Example 49, (1aS,2aR,6S,9S,10S,11R,23aR,23bS)-6-tert-butyl-N-[(1R,2R)-2-(difluoromethyl)-1-{[(1-methylcyclopropyl)sulfonyl]carbamoyl}cyclopropyl]-15-methoxy-10-methyl-4,7-dioxo-1a,2,2a,4,5,6,7,10,11,19,20,21,22,23,23a,23b-hexadecahydro-1H,9H-8,11-methanocyclopropa[4′,5′]cyclopenta[1′,2′:18,19][1,10,3,6]dioxadiazacyclononadecino[11,12-b]quinoxaline-9-carboxamide] | 20 nM | 3.5 nM | 5.2 nM | 3.5 nM | 4.1 nM | 4.2 nM | 6.3 nM | 2.8 nM | 3.7 nM | 3.8 nM | – | – | – | – | – | – | – |
| COc1ccc2nc3c(nc2c1)O[C@H]1CN(C(=O)[C@H](C(C)(C)C)NC(=O)O[C@@H]2C[C@H]2CCCCC3)[C@H](C(=O)N[C@]2(C(=O)NS(=O)(=O)C3(C)CC3)C[C@H]2C(F)F)[C@@H]1CC#N [Example 50, (1aR,5S,8S,9S,10R,22aR)-5-tert-butyl-9-(cyanomethyl)-N-[(1R,2R)-2-(difluoromethyl)-1-{[(1-methylcyclopropyl)sulfonyl]carbamoyl}cyclopropyl]-14-methoxy-3,6-dioxo-1,1a,3,4,5,6,9,10,18,19,20,21,22,22a-tetradecahydro-8H-7,10-methanocyclopropa[18,19][1,10,3,6]dioxadiazacyclononadecino[11,12-b]quinoxaline-8-carboxamide] | 19700 nM | 4440 nM | 379 nM | – | 4440 nM | 4440 nM | – | – | 4440 nM | 3830 nM | 4440 nM | 26800 nM | 4440 nM | – | – | – | – |
| CC[C@@H]1[C@@H]2CN(C(=O)[C@H](C(C)(C)C)NC(=O)O[C@]3(C)CCC[C@H]3CCCCCc3nc4ccc(OC)cc4nc3O2)[C@@H]1C(=O)N[C@]1(C(=O)NS(=O)(=O)C2CC2)C[C@H]1CC [Example 51] | 1220 nM | 30 nM | 103 nM | – | 39 nM | – | – | – | 40 nM | – | – | 265 nM | – | 28 nM | 318 nM | 24 nM | 92 nM |
| CC[C@@H]1[C@@H]2CN(C(=O)[C@H](C(C)(C)C)NC(=O)O[C@]3(C)CCC[C@H]3CCCCCc3nc4ccc(OC)cc4nc3O2)[C@@H]1C(=O)N[C@]1(C(=O)NS(=O)(=O)C2(C)CC2)C[C@H]1CCF [Example 52, (3aR,7S,10S,11S,12R,24aR)-7-tert-butyl-11-ethyl-N-[(1R,2S)-2-(2-fluoroethyl)-1-{[(1-methylcyclopropyl)sulfonyl]carbamoyl}cyclopropyl]-16-methoxy-3a-methyl-5,8-dioxo-1,2,3,3a,5,6,7,8,11,12,20,21,22,23,24,24a-hexadecahydro-10H-9,12-methanocyclopenta[18,19][1,10,3,6]dioxadiazacyclononadecino[11,12-b]quinoxaline-10-carboxamide] | 2310 nM | 161 nM | 380 nM | – | 245 nM | 887 nM | – | – | 195 nM | 516 nM | 150 nM | 538 nM | 161 nM | – | – | – | – |
| CC[C@@H]1[C@@H]2CN(C(=O)[C@H](C(C)(C)C)NC(=O)O[C@@H]3C[C@H]3CCCCC(F)(F)c3nc4ccccc4nc3O2)[C@@H]1C(=O)N[C@]1(C(=O)NS(=O)(=O)C2CC2)C[C@H]1C(F)F [Example 53, (1aR,5S,8S,9S,10R,22aR)-5-tert-butyl-N-[(1R,2R)-1-[(cyclopropylsulfonyl)carbamoyl]-2-(difluoromethyl)cyclopropyl]-9-ethyl-18,18-difluoro-3,6-dioxo-1,1a,3,4,5,6,9,10,18,19,20,21,22,22a-tetradecahydro-8H-7,10-methanocyclopropa[18,19][1,10,3,6]dioxadiazacyclononadecino[11,12-b]quinoxaline-8-carboxamide] | 18 nM | 2.8 nM | 13 nM | – | 7.7 nM | 11 nM | – | – | 51 nM | 5.6 nM | 5.3 nM | 15 nM | 2 nM | – | – | – | – |
| CC[C@@H]1[C@@H]2CN(C(=O)[C@H](C(C)(C)C)NC(=O)O[C@@H]3C[C@H]3CCCCC(F)(F)c3nc4ccccc4nc3O2)[C@@H]1C(=O)N[C@]1(C(=O)NS(=O)(=O)C2CC2)C[C@H]1CC [Example 54, (1aR,5S,8S,9S,10R,22aR)-5-tert-butyl-N-{(1R,2R)-1-[(cyclopropylsulfonyl)carbamoyl]-2-ethylcyclopropyl}-9-ethyl-18,18-difluoro-3,6-dioxo-1,1a,3,4,5,6,9,10,18,19,20,21,22,22a-tetradecahydro-8H-7,10-methanocyclopropa[18,19][1,10,3,6]dioxadiazacyclononadecino[11,12-b]quinoxaline-8-carboxamide] | 260 nM | 13 nM | 76 nM | – | 18 nM | 123 nM | – | – | 33 nM | 27 nM | 19 nM | 147 nM | 10 nM | – | – | – | – |
| CC[C@@H]1[C@@H]2CN(C(=O)[C@H](C(C)(C)C)NC(=O)O[C@]3(C)CCC[C@H]3CCCCCc3nc4ccc(OC)cc4nc3O2)[C@@H]1C(=O)N[C@]1(C(=O)NS(=O)(=O)C2(C)CC2)C[C@H]1CC [Example 56, (3aR,7S,10S,11S,12R,24aR)-7-tert-butyl-11-ethyl-N-[(1R,2R)-2-ethyl-1-{[(1-methylcyclopropyl)sulfonyl]carbamoyl}cyclopropyl]-16-methoxy-3a-methyl-5,8-dioxo-1,2,3,3a,5,6,7,8,11,12,20,21,22,23,24,24a-hexadecahydro-10H-9,12-methanocyclopenta[18,19][1,10,3,6]dioxadiazacyclononadecino[11,12-b]quinoxaline-10-carboxamide] | 1030 nM | 57 nM | 57 nM | – | 37 nM | 252 nM | – | – | 41 nM | 168 nM | 63 nM | 226 nM | 59 nM | – | – | – | – |
| COc1ccc2nc3c(nc2c1)O[C@H]1CN(C(=O)[C@H](C(C)(C)C)NC(=O)O[C@@H]2C[C@@H]4C[C@@H]4[C@H]2CCCCC3)[C@H](C(=O)N[C@]2(C(=O)NS(=O)(=O)C3CC3)C[C@H]2CC(F)F)[C@@H]1C [Example 57, (1aS,2aR,6S,9S,10S,11R,23aR,23bS)-6-tert-butyl-N-[(1R,2S)-1-[(cyclopropylsulfonyl)carbamoyl]-2-(2,2-difluoroethyl)cyclopropyl]-15-methoxy-10-methyl-4,7-dioxo-1a,2,2a,4,5,6,7,10,11,19,20,21,22,23,23a,23b-hexadecahydro-1H,9H-8,11-methanocyclopropa[4′,5′]cyclopenta[1′,2′:18,19][1,10,3,6]dioxadiazacyclononadecino[11,12-b]quinoxaline-9-carboxamide] | 166 nM | 4.9 nM | 21 nM | 12 nM | 11 nM | 48 nM | 54 nM | 7.5 nM | 12 nM | 17 nM | – | – | – | – | – | – | – |
